Holding throughout (type): cell-based
What all share (conditions): lowest concentration inhibiting 95% of bacterial growth; in the presence of β lactamase inhibitor Relebactam 4 μg/mL; 35±2° C. for 22 hours; tested range 100 μM to 0.098 μM

The subject of test [1] is Acinetobacter baumannii expressing TEM-1, AmpC, and Oxa-24/40 (CL6188). Nature of the test: Antibiotic activity: growth inhibitory concentration (OD600), Acinetobacter baumannii CL6188. Here is the method:
(§1) Antibiotic Activity: Determination of Growth Inhibitory Concentration
(§2) The concentrations of compounds required to inhibit the growth of various strains of bacteria were determined in an assay that assessed bacterial growth by measuring optical density at 600 nm (OD600). The bacterial strains tested included the clinical strains Escherichia coli expressing NDM-1 (CLB30016), Klebsiella pneumoniae expressing KPC-1 (CL6569), Acinetobacter baumannii expressing TEM-1, AmpC, and Oxa-24/40 (CL6188) and Pseudomonas aeruginosa expressing AmpC (CL5701). All compounds were tested in the presence of a β lactamase inhibitor (BLi, Relebactam) in 384-well microplates. The clinical strains were stored as frozen single use stocks, thawed and diluted into 1.1× cation-adjusted Mueller-Hinton II broth to achieve approximately 2×10^5 CFU/mL. Test compounds were dissolved in DMSO and diluted 1:50 in the assay, resulting in a final concentration range of 100 μM to 0.098 μM. […] At the end of the incubation, absorbance at 600 nm was determined using a spectrophotometer. Inhibition was quantitated by identifying the lowest concentration of test compound that was required to inhibit 95% of the growth of the bacteria. The results for Examples 1-126 are reported in Table I, expressed as the concentration of compound that inhibited 95% of bacterial growth (Minimum Inhibitory Threshold Concentration; MITC95).

Test [2] has as its system Escherichia coli expressing NDM-1 (CLB30016). Nature of the test: Antibiotic activity: growth inhibitory concentration (OD600), Escherichia coli CLB30016. As to the method:
as §1, §2

The test system of test [3] is Klebsiella pneumoniae expressing KPC-1 (CL6569). Nature of the test: Antibiotic activity: growth inhibitory concentration (OD600), Klebsiella pneumoniae CL6569. In outline:
(§3)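 Growth inhibition by OD600 after 22 hours incubation at 35±2° C, reported as lowest concentration inhibiting 95% of growth (MITC95). Final compound range 100 μM to 0.098 μM, always combined with β-lactamase inhibitor relebactam (4 μg/mL final); inoculum ~2×10^5 CFU/mL in cation-adjusted Mueller-Hinton II broth.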

Test [4] relates to Pseudomonas aeruginosa expressing AmpC (CL5701). Nature of the test: Antibiotic activity: growth inhibitory concentration (OD600), Pseudomonas aeruginosa CL5701. The method, boiled down:
as §3

Where a name gives a salt, the structure may show the parent alone.

The values below come from patent publication US11230543B2, “Biaryl monobactam compounds and methods of use thereof for the treatment of bacterial infections” (priority 2015, dated 2022).

With `C[n+]1cc(-c2ccc(OC[C@H](O/N=C(\C(=O)N[C@@H]3C(=O)N(OS(=O)(=O)[O-])C3(C)C)c3csc(N)n3)C(=O)O)cc2)c(N)n1CCCN` [Example 50, (S)-3-((Z)-2-(((S)-2-(4-(5-Amino-1-(3-aminopropyl)-2-methyl-1H-pyrazol-2-ium-4-yl)phenoxy)-1-carboxyethoxy)imino)-2-(2-aminothiazol-4-yl)acetamido)-2,2-dimethyl-4-oxoazetidin-1-yl sulfate], the “AB_CL6188 MITC95” value in test [1] was determined as 3.125 µM. Further, the “EC_CLB30016 MITC95” value in test [2] came to 6.25 µM. In test [3], the “KP_CL6569 MITC95” value is 0.3906 µM. In addition, the “PA_CL5701 MITC95” value in test [4] was 6.25 µM.

Turning to “(S)-3-((Z)-2-(((S)-2-(4-(2-(3-amino-2-fluoro-2λ^3-propyl)-1-(azetidin-3-ylmethyl)-1H-pyrazol-2-ium-4-yl)phenoxy)-1-carboxyethoxy)imino)-2-(2-aminothiazol-4-yl)acetamido)-2,2-dimethyl-4-oxoazetidin-1-yl sulfate [Example 121]”, in test [1], the “AB_CL6188 MITC95” value came out at 1.563 µM. The “EC_CLB30016 MITC95” value in test [2] was determined as 6.25 µM. The “KP_CL6569 MITC95” value in test [3] is 0.1953 µM. The “PA_CL5701 MITC95” value in test [4] worked out at 1.563 µM.
